Measured values taken from patent publication US9636418B2 (priority 2013, dated 2017).
Read-outs that look alike come from different tables or passages of the source.

Legend:
Assay in all cases: cell-based
hNav1.4 [1] = molecular target: T1, hNav1.4 (Homo sapiens, UniProt P35499); settings: ratio of IonWorks Quattro IC50 values
hNav1.7 [2] = molecular target: T2, hNav1.7 (Homo sapiens, UniProt Q15858); settings: IonWorks Quattro; read-out: IC50 Nav1.7
hNav1.4 [3] = molecular target: T1, hNav1.4; settings: for IC50: PatchXpress, tonic block, read-out: PX hNav1.4 Tonic IC50; for Nav1.4/Nav1.7: ratio of PX tonic IC50 values
hNav1.5 = hNav1.5 (Homo sapiens, UniProt Q14524); settings: for IC50: PatchXpress, tonic block, read-out: PX hNav1.5 Tonic IC50; for Nav1.5/Nav1.7: ratio of PX tonic IC50 values
hNav1.7 [4] = molecular target: T2, hNav1.7; format: cell-based; settings: PatchXpress, tonic block; read-out: PX hNav1.7 Tonic IC50

T1 sequence (P35499 whole entry): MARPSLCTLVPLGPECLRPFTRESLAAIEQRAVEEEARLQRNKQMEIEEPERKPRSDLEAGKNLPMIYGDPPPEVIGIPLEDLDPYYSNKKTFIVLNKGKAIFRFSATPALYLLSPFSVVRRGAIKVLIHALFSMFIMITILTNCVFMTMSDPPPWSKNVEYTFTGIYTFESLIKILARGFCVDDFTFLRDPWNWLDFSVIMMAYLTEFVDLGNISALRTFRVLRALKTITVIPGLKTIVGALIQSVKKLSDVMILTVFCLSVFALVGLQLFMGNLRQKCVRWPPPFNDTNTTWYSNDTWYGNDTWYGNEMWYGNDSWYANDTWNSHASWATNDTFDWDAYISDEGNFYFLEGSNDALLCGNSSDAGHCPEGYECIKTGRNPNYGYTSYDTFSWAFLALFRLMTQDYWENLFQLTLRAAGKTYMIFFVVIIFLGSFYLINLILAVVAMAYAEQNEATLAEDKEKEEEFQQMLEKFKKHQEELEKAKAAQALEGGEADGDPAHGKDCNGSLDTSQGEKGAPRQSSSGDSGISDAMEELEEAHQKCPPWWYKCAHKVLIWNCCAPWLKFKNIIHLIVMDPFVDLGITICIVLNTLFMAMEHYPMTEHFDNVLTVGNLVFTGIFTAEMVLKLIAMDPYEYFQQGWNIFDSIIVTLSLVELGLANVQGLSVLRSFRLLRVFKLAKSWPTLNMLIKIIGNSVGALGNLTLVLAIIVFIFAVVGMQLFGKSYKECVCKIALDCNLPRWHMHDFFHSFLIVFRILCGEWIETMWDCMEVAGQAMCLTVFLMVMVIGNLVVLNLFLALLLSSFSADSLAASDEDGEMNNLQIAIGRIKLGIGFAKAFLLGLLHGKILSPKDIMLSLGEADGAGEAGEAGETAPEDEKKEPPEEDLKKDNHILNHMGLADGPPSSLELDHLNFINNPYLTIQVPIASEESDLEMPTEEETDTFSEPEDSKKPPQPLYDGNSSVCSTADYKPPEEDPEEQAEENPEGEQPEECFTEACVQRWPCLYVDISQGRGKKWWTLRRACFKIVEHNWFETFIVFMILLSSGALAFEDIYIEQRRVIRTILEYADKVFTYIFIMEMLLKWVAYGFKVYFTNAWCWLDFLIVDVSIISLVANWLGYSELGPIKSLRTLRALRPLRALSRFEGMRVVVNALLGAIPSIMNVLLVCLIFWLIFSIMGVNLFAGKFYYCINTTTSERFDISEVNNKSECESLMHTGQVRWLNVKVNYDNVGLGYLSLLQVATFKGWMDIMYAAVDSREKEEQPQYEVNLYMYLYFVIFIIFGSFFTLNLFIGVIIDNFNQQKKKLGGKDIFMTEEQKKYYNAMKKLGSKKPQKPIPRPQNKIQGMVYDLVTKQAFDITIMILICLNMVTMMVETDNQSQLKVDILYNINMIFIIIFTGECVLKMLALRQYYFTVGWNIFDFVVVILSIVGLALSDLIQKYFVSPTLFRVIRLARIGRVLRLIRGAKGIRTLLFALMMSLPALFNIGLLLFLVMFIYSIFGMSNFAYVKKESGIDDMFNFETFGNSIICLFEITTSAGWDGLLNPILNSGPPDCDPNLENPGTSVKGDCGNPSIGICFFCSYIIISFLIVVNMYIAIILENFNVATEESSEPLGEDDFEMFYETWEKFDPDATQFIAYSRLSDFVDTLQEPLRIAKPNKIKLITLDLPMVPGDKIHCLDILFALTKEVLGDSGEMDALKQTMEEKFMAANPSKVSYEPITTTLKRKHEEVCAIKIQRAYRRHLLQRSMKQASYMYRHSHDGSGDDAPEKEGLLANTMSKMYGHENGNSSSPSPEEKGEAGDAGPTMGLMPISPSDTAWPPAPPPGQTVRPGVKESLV
T2 sequence (Q15858 whole entry): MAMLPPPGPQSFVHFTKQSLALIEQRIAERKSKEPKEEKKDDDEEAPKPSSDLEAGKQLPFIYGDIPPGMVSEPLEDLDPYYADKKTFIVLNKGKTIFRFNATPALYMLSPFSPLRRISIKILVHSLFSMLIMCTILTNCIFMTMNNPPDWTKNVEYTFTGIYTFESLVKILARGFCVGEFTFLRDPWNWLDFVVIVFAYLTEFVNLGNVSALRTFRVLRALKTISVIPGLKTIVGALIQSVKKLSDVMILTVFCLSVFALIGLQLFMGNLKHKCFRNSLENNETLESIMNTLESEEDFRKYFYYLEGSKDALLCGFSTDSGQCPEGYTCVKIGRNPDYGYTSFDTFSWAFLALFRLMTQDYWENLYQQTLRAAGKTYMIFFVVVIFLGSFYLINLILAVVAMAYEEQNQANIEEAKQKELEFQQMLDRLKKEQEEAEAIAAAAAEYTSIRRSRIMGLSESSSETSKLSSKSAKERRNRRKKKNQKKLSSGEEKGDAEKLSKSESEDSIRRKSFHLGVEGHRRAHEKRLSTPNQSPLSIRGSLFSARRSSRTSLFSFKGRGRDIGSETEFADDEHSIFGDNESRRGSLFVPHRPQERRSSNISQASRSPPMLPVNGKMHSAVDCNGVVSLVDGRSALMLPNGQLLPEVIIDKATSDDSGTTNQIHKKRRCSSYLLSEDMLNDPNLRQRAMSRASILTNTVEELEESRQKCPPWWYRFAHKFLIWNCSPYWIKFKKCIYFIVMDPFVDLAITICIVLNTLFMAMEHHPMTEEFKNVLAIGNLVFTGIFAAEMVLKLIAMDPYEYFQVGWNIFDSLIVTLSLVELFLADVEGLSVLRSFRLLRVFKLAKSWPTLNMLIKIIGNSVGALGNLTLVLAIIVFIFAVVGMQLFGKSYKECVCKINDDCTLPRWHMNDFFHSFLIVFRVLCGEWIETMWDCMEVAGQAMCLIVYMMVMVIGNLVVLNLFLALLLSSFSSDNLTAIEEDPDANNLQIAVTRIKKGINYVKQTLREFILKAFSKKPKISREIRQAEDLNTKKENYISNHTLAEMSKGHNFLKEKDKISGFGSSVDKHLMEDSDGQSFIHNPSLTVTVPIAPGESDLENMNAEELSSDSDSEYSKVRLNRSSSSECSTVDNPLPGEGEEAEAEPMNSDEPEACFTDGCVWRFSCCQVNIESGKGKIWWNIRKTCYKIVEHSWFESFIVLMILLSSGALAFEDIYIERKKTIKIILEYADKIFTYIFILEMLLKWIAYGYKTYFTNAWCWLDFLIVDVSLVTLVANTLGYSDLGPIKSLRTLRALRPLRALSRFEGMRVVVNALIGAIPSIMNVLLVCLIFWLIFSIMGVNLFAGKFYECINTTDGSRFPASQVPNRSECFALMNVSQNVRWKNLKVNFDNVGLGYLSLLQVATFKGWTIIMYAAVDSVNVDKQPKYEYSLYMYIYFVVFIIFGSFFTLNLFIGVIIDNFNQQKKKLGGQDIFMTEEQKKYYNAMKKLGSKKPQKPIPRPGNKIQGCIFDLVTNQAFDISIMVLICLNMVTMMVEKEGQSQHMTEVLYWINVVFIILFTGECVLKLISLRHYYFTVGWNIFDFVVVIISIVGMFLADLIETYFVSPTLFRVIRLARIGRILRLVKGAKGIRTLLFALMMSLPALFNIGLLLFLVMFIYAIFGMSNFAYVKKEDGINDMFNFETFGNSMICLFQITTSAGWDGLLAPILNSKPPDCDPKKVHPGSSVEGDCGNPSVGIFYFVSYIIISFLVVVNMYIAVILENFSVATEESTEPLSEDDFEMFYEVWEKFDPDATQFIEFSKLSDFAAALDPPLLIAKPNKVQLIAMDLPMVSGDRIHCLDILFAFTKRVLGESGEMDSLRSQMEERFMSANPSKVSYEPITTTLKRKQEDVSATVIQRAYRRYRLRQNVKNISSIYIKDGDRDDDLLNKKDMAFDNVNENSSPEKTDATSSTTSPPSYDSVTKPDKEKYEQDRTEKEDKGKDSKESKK

`CC[C@H](C)[C@H](NC(=O)[C@@H](NC(=O)[C@H](CCCCN)NC(=O)[C@H](CCCNC(=N)N)NC(=O)[C@@H]1CSSC[C@@H]2NC(=O)[C@H](C)NC(=O)[C@H](CCCNC(=N)N)NC(=O)[C@H](CCCCN)NC(=O)[C@H](CO)NC(=O)[C@H](CC(=O)O)NC(=O)[C@@H]3CSSC[C@H](NC(=O)[C@H](CCC(=O)O)NC(=O)[C@H](CC(C)C)NC(=O)CNC(=O)[C@H](CCC(=O)O)NC(=O)[C@H](CSSC[C@H](NC(=O)[C@@H](N)Cc4ccc(O)cc4)C(=O)N[C@@H](CCC(N)=O)C(=O)N[C@@H](CCCCN)C(=O)N[C@@H](Cc4c[nH]c5ccccc45)C(=O)N[C@@H](CCSC)C(=O)N[C@@H](Cc4c[nH]c5ccccc45)C(=O)N[C@@H](Cc4cn(CCCOCCOCCOCCOCCOCCOCCOCCOCCOCCOCCN)nn4)C(=O)N3)NC2=O)C(=O)N[C@@H](CCCCN)C(=O)N[C@@H](CC(C)C)C(=O)N[C@@H](Cc2c[nH]c3ccccc23)C(=O)N1)[C@@H](C)CC)C(N)=O` [compound 171] was tested, and the Nav1.4/Nav1.7 (hNav1.4 [1]) was 1 and the IC50 (hNav1.7 [2]) was ≥ 5000 nM.
With `CC[C@H](C)[C@H](NC(=O)[C@H](CCCCN)NC(=O)[C@H](CCCNC(=N)N)NC(=O)[C@@H]1CSSC[C@@H]2NC(=O)[C@H](C)NC(=O)[C@H](CCCNC(=N)N)NC(=O)[C@H](CCCCN)NC(=O)[C@H](CO)NC(=O)[C@H](CC(=O)O)NC(=O)[C@@H]3CSSC[C@H](NC(=O)[C@H](CCC(=O)O)NC(=O)[C@H](CC(C)C)NC(=O)CNC(=O)[C@H](CCC(=O)O)NC(=O)[C@H](CSSC[C@H](NC(=O)[C@@H](N)Cc4ccc(O)cc4)C(=O)N[C@@H](CCC(N)=O)C(=O)N[C@@H](CCCCN)C(=O)N[C@@H](Cc4c[nH]c5ccccc45)C(=O)N[C@@H](CCSC)C(=O)N[C@@H](Cc4c[nH]c5ccccc45)C(=O)N[C@@H]([C@@H](C)O)C(=O)N3)NC2=O)C(=O)N[C@@H](CCCCN)C(=O)N[C@@H](CC(C)C)C(=O)N[C@@H](Cc2c[nH]c3ccccc23)C(=O)N1)C(=O)N[C@@H](Cc1cn(CCCOCCOCCOCCOCCOCCOCCOCCOCCOCCOCCN)nn1)C(N)=O` [compound 188] the Nav1.4/Nav1.7 (hNav1.4 [1]) was 1 and the IC50 (hNav1.7 [2]) was ≥ 5000 nM.
Work on `C#CC[C@H](N)C(=O)NCCOCCOCCOCCOCCOCCOCCOCCOCCOCCOCCOCCOCCC(=O)NCCCC[C@@H]1NC(=O)[C@H](CCCNC(=N)N)NC(=O)[C@H](CCCCN)NC(=O)[C@H](CO)NC(=O)[C@H](CC(=O)O)NC(=O)[C@@H]2CSSC[C@@H]3NC(=O)[C@H](CCC(=O)O)NC(=O)[C@H](CC(C)C)NC(=O)CNC(=O)[C@H](CCC(=O)O)NC(=O)[C@H](CSSC[C@H](NC(=O)[C@@H](N)Cc4ccc(O)cc4)C(=O)N[C@@H](CCC(N)=O)C(=O)N[C@@H](CCCCN)C(=O)N[C@@H](Cc4c[nH]c5ccccc45)C(=O)N[C@@H](CCCC)C(=O)N[C@@H](Cc4c[nH]c5ccccc45)C(=O)N[C@@H]([C@@H](C)O)C(=O)N2)NC(=O)[C@H](CSSC[C@@H](C(=O)N[C@@H](CCCNC(=N)N)C(=O)N[C@@H](CCCCN)C(=O)N[C@H](C(=O)N[C@@H](Cc2c[nH]c4ccccc24)C(N)=O)[C@@H](C)CC)NC(=O)[C@H](Cc2c[nH]c4ccccc24)NC(=O)[C@H](CC(C)C)NC(=O)[C@H](CCCCN)NC3=O)NC1=O` [compound 290] yielded an IC50 (hNav1.4 [3]) of 2730 nM, a Nav1.4/Nav1.7 (hNav1.4 [3]) of 5 and an IC50 (hNav1.5) of 6100 nM. It also gave a Nav1.5/Nav1.7 (hNav1.5) of 12, an IC50 (hNav1.7 [2]) of 52 nM and an IC50 (hNav1.7 [4]) of 520 nM.
Work on `C#CC[C@H](N)C(=O)NCCOCCOCCOCCOCCC(=O)NCCCC[C@@H]1NC(=O)[C@H](CCCNC(=N)N)NC(=O)[C@H](CCCCN)NC(=O)[C@H](CO)NC(=O)[C@H](CC(=O)O)NC(=O)[C@@H]2CSSC[C@@H]3NC(=O)[C@H](CCC(=O)O)NC(=O)[C@H](CC(C)C)NC(=O)CNC(=O)[C@H](CCC(=O)O)NC(=O)[C@H](CSSC[C@H](NC(=O)[C@@H](N)Cc4ccc(O)cc4)C(=O)N[C@@H](CCC(N)=O)C(=O)N[C@@H](CCCCN)C(=O)N[C@@H](Cc4c[nH]c5ccccc45)C(=O)N[C@@H](CCCC)C(=O)N[C@@H](Cc4c[nH]c5ccccc45)C(=O)N[C@@H]([C@@H](C)O)C(=O)N2)NC(=O)[C@H](CSSC[C@@H](C(=O)N[C@@H](CCCNC(=N)N)C(=O)N[C@@H](CCCCN)C(=O)N[C@H](C(=O)N[C@@H](Cc2c[nH]c4ccccc24)C(N)=O)[C@@H](C)CC)NC(=O)[C@H](Cc2c[nH]c4ccccc24)NC(=O)[C@H](CC(C)C)NC(=O)[C@H](CCCCN)NC3=O)NC1=O` [compound 291] yielded an IC50 (hNav1.4 [3]) of 1130 nM, a Nav1.4/Nav1.7 (hNav1.4 [3]) of 38 and an IC50 (hNav1.5) of 3010 nM. For the same compound, the Nav1.5/Nav1.7 (hNav1.5) was 100, the IC50 (hNav1.7 [2]) was 28 nM and the IC50 (hNav1.7 [4]) was 30 nM.
For `C#CC[C@H](N)C(=O)NCCOCCOCCOCCOCCOCCOCCOCCOCCOCCOCCOCCOCCC(=O)NCCCC[C@@H]1NC(=O)[C@@H]2CSSC[C@H](NC(=O)[C@@H](N)Cc3ccc(O)cc3)C(=O)N[C@@H](CCC(N)=O)C(=O)N[C@@H](CCCCN)C(=O)N[C@@H](Cc3c[nH]c4ccccc34)C(=O)N[C@@H](CCCC)C(=O)N[C@@H](Cc3c[nH]c4ccccc34)C(=O)N[C@@H]([C@@H](C)O)C(=O)N[C@H]3CSSC[C@H](NC(=O)[C@H](CCC(=O)O)NC(=O)[C@H](CC(C)C)NC(=O)CNC1=O)C(=O)N[C@@H](CCCCN)C(=O)N[C@@H](CC(C)C)C(=O)N[C@@H](Cc1c[nH]c4ccccc14)C(=O)N[C@H](C(=O)N[C@@H](CCCNC(=N)N)C(=O)N[C@@H](CCCCN)C(=O)N[C@H](C(=O)N[C@@H](Cc1c[nH]c4ccccc14)C(N)=O)[C@@H](C)CC)CSSC[C@H](NC(=O)[C@H](C)NC(=O)[C@H](CCCNC(=N)N)NC(=O)[C@H](CCCCN)NC(=O)[C@H](CO)NC(=O)[C@H](CC(=O)O)NC3=O)C(=O)N2` [compound 292], the IC50 (hNav1.4 [3]) was 1630 nM, the Nav1.4/Nav1.7 (hNav1.4 [3]) was 2 and the IC50 (hNav1.5) was 3120 nM. It also gave a Nav1.5/Nav1.7 (hNav1.5) of 3, an IC50 (hNav1.7 [2]) of 82 nM and an IC50 (hNav1.7 [4]) of 900 nM.
In the case of `CCCC[C@@H]1NC(=O)[C@H](Cc2c[nH]c3ccccc23)NC(=O)[C@H](CCCCN)NC(=O)[C@H](CCC(N)=O)NC(=O)[C@@H](NC(=O)[C@@H](N)Cc2ccc(O)cc2)CSSC[C@@H]2NC(=O)[C@@H]3CSSC[C@@H](C(=O)N[C@@H](CCCNC(=N)N)C(=O)N[C@@H](CCCCN)C(=O)N[C@@H](Cc4ccc(O)cc4)C(=O)N[C@H](C(N)=O)[C@@H](C)CC)NC(=O)[C@H](Cc4c[nH]c5ccccc45)NC(=O)[C@H](CC(C)C)NC(=O)[C@H](CCCCN)NC(=O)[C@H](CSSC[C@H](NC(=O)[C@H]([C@@H](C)O)NC(=O)[C@H](Cc4c[nH]c5ccccc45)NC1=O)C(=O)N[C@@H](CC(=O)O)C(=O)N[C@@H](CO)C(=O)N[C@@H](CCCCN)C(=O)N[C@@H](CCCNC(=N)N)C(=O)N[C@@H](C)C(=O)N3)NC(=O)[C@H](CCC(=O)O)NC(=O)[C@H](CC(C)C)NC(=O)CNC(=O)[C@H](CCCCN=[N+]=[N-])NC2=O` [compound 322], the IC50 (hNav1.7 [2]) is reported as 67 nM.
